# Test system: 598228-144-R-J1-PDC complex spheroid viability
# Test: Anticancer human tumor 598228-144-R-J1-PDC patient-derived serous endometrial adenocarcinoma cell line growth inhibition [GQUAD]
# Settings: for IC50: curve of first compound; for viability, T/C: stronger effect = lower value
# Source text: DNA G-quadruplex Stabilizer Agents in Combinations in Complex Spheroids
# A high-throughput screen of multi-cell type tumor spheroids was designed to identify active combinations of DNA G-quadruplex stabilizer agents and targeted small molecules. Complex spheroids include a stromal component modeled by human endothelial cells (HUVEC) and fibroblasts modeled by human mesenchymal stem cells (MSCs). The concentration ranges selected for each drug and investigational agent were based upon clinically achievable concentrations if the clinical Cmax of the agent was known.
# Compounds. The drugs and investigational agents: pidnarulex (CX-5461; NSC782164), APTO-253 (NSC789042), BRACO-19 (NSC847499), peposertib (NSC802822), ceralasertib (NSC780249), elimusertib (NSC800525), camonsertib (NSC841442), AZD-1390 (NSC803789), olaparib (NSC753686), talazoparib (NSC767125), ART-558 (NSC835418), sotorasib (NSC818433), MRTX-1133 (NSC836407), SN-38 (NSC673596), topotecan (NSC609699), etoposide (NSC141540), doxorubicin (NSC123127), gemcitabine (NSC613327), 5-fluorouracil (NSC19893), paclitaxel (NSC125973), vemurafenib (NSC761431), panobinostat (NSC761190), R-306465 (JNJ-16241199; NSC773264), adavosertib (NSC754352), TP-3654 (NSC805149), carboplatin (NSC241240), KSQ-4279 (NSC840948), and staurosporine (NSC755774) were obtained from the National Cancer Institute (NCI) Developmental Therapeutics Program Chemical Repository (34). The FDA-approved anticancer drug set is available from the NCI Developmental Therapeutics Program. […] The stock solutions were prepared in dimethyl sulfoxide (DMSO, Sigma-Aldrich, St. Louis, MO, cat. D2650) at 800-fold the tested concentration and stored at -70 degrees C prior to their use. All drugs and investigational agents were tested over a range starting from a high concentration at or near the clinical Cmax and decreasing in half-log increments. If the clinical Cmax for an agent had not been determined, the highest concentration tested was 10 microM.
# 2.3 Cell Culture. All cells were maintained in an incubator at 37 degrees C and 5% CO2 with 95% humidity. The PDC lines were cultured according to standard operating procedures established by the NCI PDMR. All PDCs were thawed and cultured in Matrigel-coated flasks prepared with a working solution of 1X Ham's F-12 nutrient mix, without supplementation (Invitrogen, cat. 11765054), 100 U/mL penicillin-streptomycin (Invitrogen, cat. 15140122), and 2.5% Matrigel (Corning Inc., cat. 354248) for the first three passages. The 857933-349-R-J2-PDC line was cultured in 6C/Colon 1B media, which includes advanced DMEM/F-12 (Thermo Fisher Scientific, cat. 12634028), 10 mM HEPES (Thermo Fisher Scientific, cat. 15630080), 1X GlutaMAX supplement (Thermo Fisher Scientific, cat. 35050061), 0.1 mg/mL primocin (InvivoGen, cat. ant-pm-2), 10% defined fetal bovine serum, heat inactivated (HyClone Laboratories Inc., cat. SH30070.03HI), 50% L-WRN conditioned media (ATCC, cat. CRL-3276), 1.25 mM N-Acetyl-L-cysteine (Sigma-Aldrich, cat. A9165), 10 mM nicotinamide (Sigma-Aldrich, cat. N0636), 1X B-27 supplement (Thermo Fisher Scientific, cat. 17504044), 1X N-2 supplement (Thermo Fisher Scientific, cat. 17502048), 10 microM Y-27632 dihydrochloride (Tocris Bioscience, cat. 1254), and 50 ng/mL human EGF recombinant protein (Thermo Fisher Scientific, cat. PHG0311). The 485176-168-R4-J1-PDC line was cultured in Panc media, which includes all 6C/Colon 1B media components plus 100 ng/mL human FGF-10 (Thermo Fisher Scientific, cat. 100-26), 500 nM SB-431542 (Selleckchem, cat. S1067), and gastrin (Tocris, cat. 3006).
# […]
# [1] = second compound 0.0316 µM, first compound 0.0316 µM
# [2] = second compound 0.0316 µM, first compound 0.1 µM
# [3] = second compound 0.0316 µM, first compound 0.316 µM
# [4] = second compound 0.0316 µM, first compound 1 µM
# [5] = second compound 0.0316 µM, first compound 3.16 µM
# [6] = second compound 0.0316 µM, first compound 10 µM
# [7] = second compound 0.1 µM, first compound 0.0316 µM
# [8] = second compound 0.1 µM, first compound 0.1 µM
# [9] = second compound 0.1 µM, first compound 0.316 µM
# [10] = second compound 0.1 µM, first compound 1 µM
# [11] = second compound 0.1 µM, first compound 3.16 µM
# [12] = second compound 0.1 µM, first compound 10 µM
# [13] = second compound 0.316 µM, first compound 0.0316 µM
# [14] = second compound 0.316 µM, first compound 0.1 µM
# [15] = second compound 0.316 µM, first compound 0.316 µM
# [16] = second compound 0.316 µM, first compound 1 µM
# [17] = second compound 0.316 µM, first compound 3.16 µM
# [18] = second compound 0.316 µM, first compound 10 µM
# [19] = second compound 1 µM, first compound 0.0316 µM
# [20] = second compound 1 µM, first compound 0.1 µM
# [21] = second compound 1 µM, first compound 0.316 µM
# [22] = second compound 1 µM, first compound 1 µM
# [23] = second compound 1 µM, first compound 3.16 µM
# [24] = second compound 1 µM, first compound 10 µM
# [25] = second compound 3.16 µM, first compound 0.0316 µM
# [26] = second compound 3.16 µM, first compound 0.1 µM
# [27] = second compound 3.16 µM, first compound 0.316 µM
# [28] = second compound 3.16 µM, first compound 1 µM
# [29] = second compound 3.16 µM, first compound 3.16 µM
# [30] = second compound 3.16 µM, first compound 10 µM
# [31] = second compound 10 µM, first compound 0.0316 µM
# [32] = second compound 10 µM, first compound 0.1 µM
# [33] = second compound 10 µM, first compound 0.316 µM
# [34] = second compound 10 µM, first compound 1 µM
# [35] = second compound 10 µM, first compound 3.16 µM
# [36] = second compound 10 µM, first compound 10 µM
# 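Also: spheroids exposed to the agents for one week before reading.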
# 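For viability, T/C in this document: percent of vehicle DMSO control viability so 100% = untreated growth.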
structure (smiles),measurement,setting,value
COc1cccc2c1C(=O)c1c(O)c3c(c(O)c1C2=O)CC(O)(C(=O)CO)CC3OC1CC(N)C(O)C(C)O1 (stereo unspecified) + Cc1cnc(CNC(=O)c2c(=O)c3ccc(N4CCCN(C)CC4)nc3n3c2sc2ccccc23)cn1,IC50,second compound 0.0316 µM,807 nM
same,IC50,second compound 0.1 µM,745 nM
same,IC50,second compound 0.316 µM,779 nM
same,IC50,second compound 1 µM,529 nM
same,IC50,second compound 3.16 µM,335 nM
same,IC50,second compound 10 µM,< 31.6 nM
same,"viability, T/C",[1],90.4%
same,"viability, T/C",[2],73.9%
same,"viability, T/C",[3],79.3%
same,"viability, T/C",[4],43.3%
same,"viability, T/C",[5],0.82%
same,"viability, T/C",[6],0.57%
same,"viability, T/C",[7],80.8%
same,"viability, T/C",[8],56.7%
same,"viability, T/C",[9],77.8%
same,"viability, T/C",[10],42.5%
same,"viability, T/C",[11],1.19%
same,"viability, T/C",[12],0.85%
same,"viability, T/C",[13],69.1%
same,"viability, T/C",[14],64.6%
same,"viability, T/C",[15],80.3%
same,"viability, T/C",[16],44.1%
same,"viability, T/C",[17],0.37%
same,"viability, T/C",[18],0.24%
same,"viability, T/C",[19],63.1%
same,"viability, T/C",[20],67.6%
same,"viability, T/C",[21],82.9%
same,"viability, T/C",[22],23.8%
same,"viability, T/C",[23],0.6%
same,"viability, T/C",[24],0.4%
same,"viability, T/C",[25],44.3%
same,"viability, T/C",[26],61.6%
same,"viability, T/C",[27],52.7%
same,"viability, T/C",[28],0.52%
same,"viability, T/C",[29],0.72%
same,"viability, T/C",[30],0.28%
same,"viability, T/C",[31],45.2%
same,"viability, T/C",[32],43.8%
same,"viability, T/C",[33],20.7%
same,"viability, T/C",[34],0.36%
same,"viability, T/C",[35],0.41%
same,"viability, T/C",[36],0.29%
CC1COCCN1c1cc(-c2ccnn2C)c2ccnc(-c3ccn[nH]3)c2n1 (stereo unspecified) + Cc1[nH]c2ccc(F)cc2c1-c1nc2c3cccnc3c3ncccc3c2[nH]1,IC50,second compound 0.0316 µM,209 nM
same,IC50,second compound 0.1 µM,221 nM
same,IC50,second compound 0.316 µM,78.2 nM
same,IC50,second compound 1 µM,< 31.6 nM
same,IC50,second compound 3.16 µM,< 31.6 nM
same,IC50,second compound 10 µM,< 31.6 nM
same,"viability, T/C",[1],92.4%
same,"viability, T/C",[2],63.8%
same,"viability, T/C",[3],41.3%
same,"viability, T/C",[4],43.3%
same,"viability, T/C",[5],37.2%
same,"viability, T/C",[6],36%
same,"viability, T/C",[7],71.1%
same,"viability, T/C",[8],55.7%
same,"viability, T/C",[9],41.6%
same,"viability, T/C",[10],50.2%
same,"viability, T/C",[11],52.6%
same,"viability, T/C",[12],44%
same,"viability, T/C",[13],59%
same,"viability, T/C",[14],47.7%
same,"viability, T/C",[15],45.7%
same,"viability, T/C",[16],47.2%
same,"viability, T/C",[17],43.9%
same,"viability, T/C",[18],49.1%
same,"viability, T/C",[19],44.3%
same,"viability, T/C",[20],41.5%
same,"viability, T/C",[21],37.6%
same,"viability, T/C",[22],41.8%
same,"viability, T/C",[23],45.1%
same,"viability, T/C",[24],36.5%
same,"viability, T/C",[25],36.9%
same,"viability, T/C",[26],36.9%
same,"viability, T/C",[27],39.7%
same,"viability, T/C",[28],30.7%
same,"viability, T/C",[29],24.9%
same,"viability, T/C",[30],22.4%
same,"viability, T/C",[31],47%
same,"viability, T/C",[32],42.7%
same,"viability, T/C",[33],41.4%
same,"viability, T/C",[34],36.8%
same,"viability, T/C",[35],44.1%
same,"viability, T/C",[36],36.5%
C#Cc1c(F)ccc2cc(O)cc(-c3ncc4c(N5CC6CCC(C5)N6)nc(OCC56CCCN5CC(F)C6)nc4c3F)c12 (stereo unspecified) + Cc1cnc(CNC(=O)c2c(=O)c3ccc(N4CCCN(C)CC4)nc3n3c2sc2ccccc23)cn1,IC50,second compound 0.0316 µM,> 10000 nM
same,IC50,second compound 0.1 µM,> 10000 nM
same,IC50,second compound 0.316 µM,> 10000 nM
same,IC50,second compound 1 µM,8910 nM
same,IC50,second compound 3.16 µM,31.6 nM
same,IC50,second compound 10 µM,< 31.6 nM
same,"viability, T/C",[1],99.8%
same,"viability, T/C",[2],88.6%
same,"viability, T/C",[3],85.6%
same,"viability, T/C",[4],83.2%
same,"viability, T/C",[5],101%
same,"viability, T/C",[6],81.7%
same,"viability, T/C",[7],64.3%
same,"viability, T/C",[8],77.7%
same,"viability, T/C",[9],71.6%
same,"viability, T/C",[10],63.7%
same,"viability, T/C",[11],69.7%
same,"viability, T/C",[12],68.7%
same,"viability, T/C",[13],75%
same,"viability, T/C",[14],58.8%
same,"viability, T/C",[15],62.7%
same,"viability, T/C",[16],55.4%
same,"viability, T/C",[17],69.9%
same,"viability, T/C",[18],53.1%
same,"viability, T/C",[19],57%
same,"viability, T/C",[20],53.4%
same,"viability, T/C",[21],54%
same,"viability, T/C",[22],58.9%
same,"viability, T/C",[23],52.4%
same,"viability, T/C",[24],46.1%
same,"viability, T/C",[25],46.5%
same,"viability, T/C",[26],50.9%
same,"viability, T/C",[27],46.8%
same,"viability, T/C",[28],40.5%
same,"viability, T/C",[29],52.2%
same,"viability, T/C",[30],27.9%
same,"viability, T/C",[31],25.5%
same,"viability, T/C",[32],30.3%
same,"viability, T/C",[33],20.4%
same,"viability, T/C",[34],24.2%
same,"viability, T/C",[35],7.19%
same,"viability, T/C",[36],0.48%
